Laboratory results reported in US20150344466A1 (SUMITOMO CHEMICAL COMPANY, LIMITED, priority 2013, published 2015).

Experiments:
Format in all cases: in vivo
Blattella germanica [1] = test: Knockdown spray test on Blattella germanica, 2.0% w/v oil formulation (Test Example 1); conditions: topical, 0.25 h, active ingredient 2.0% w/v, 1.5 ml sprayed, within 15 minutes, read-out: knockdown rate of the test insects within 15 minutes
Summary of the method: (§1)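 Ten German cockroaches (5 males, 5 females) in a mesh-bottomed, butter-walled container were sprayed with 1.5 ml test solution from 60 cm at 0.42 kg/cm^2 inside a chamber.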

Musca domestica [2] = test: Knockdown spray test on adult Musca domestica (Test Example 3); conditions: topical, 0.25 h, active ingredient 2.0% w/v, 0.5 ml sprayed, within 15 minutes, read-out: knockdown rate of the test insects within 15 minutes
Summary of the method: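 Ten adult house flies (5 male, 5 female) in a gauze-covered cup sprayed with 0.5 ml test solution from 30 cm at 0.9 kg/cm^2 inside a chamber, then removed. Knocked-down flies counted at 2, 5 and 15 min and expressed as % of insects tested.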

Aphis gossypii [3] = test: Soil treatment test on Aphis gossypii on cucumber (Test Example 9); conditions: 168 h, 5 ml treatment solution in contact with soil, seven days after putting insects, read-out: controlling value
Protocol: On the other hand, cucumber was planted in a polyethylene cup with a plurality of small holes on the bottom and grown until the first true leaf was spread. A cup in which cucumber was planted was put in a plastic cup with 5 ml of the test treatment solution, so that the soil in the cup was in contact with the treatment liquid. After five days, about 20Aphis gossypii were allowed to parasitize the cucumber, and seven days after putting insects, the number of Aphis gossypii was investigated, and the controlling value was calculated according to the following equation. Controlling value (%)={1−(Cb×Tai)/([…])}×100 In the equation, the symbols represent as follows. Cb: the number of insects in a non-treated section before treatment Cai: the number of insects in a non-treated section on observation Tb: the number of insects in a treated section before treatment Tai: the number of insects in a treated section on observation

Culex pipiens pallens [4] = test: Knockdown spray test on adult Culex pipiens pallens (Test Example 4); conditions: topical, 0.25 h, active ingredient 0.1% w/v, 0.5 ml sprayed, within 15 minutes, read-out: knockdown rate of the test insects within 15 minutes
Summary of the method: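 Ten adult mosquitoes in a gauze-covered cup inside a 46×46×70 cm chamber were sprayed with 0.5 ml of test solution from 30 cm at 0.4 kg/cm^2. The cup was removed at once, and knocked-down insects were counted at 2, 5 and 15 min; knockdown rate (%) = knocked-down/tested ×100.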

Musca domestica [5] = test: Filter paper/sucrose bait death rate test on Musca domestica (Test Example 5); conditions: female imagoes of Musca domestica, 0.7 ml on filter paper, after 24 hours
Summary of the method: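 Filter paper in a 5.5 cm cup dosed with 0.7 ml test drug solution, with 30 mg sucrose as bait. Ten female adult houseflies released and cup sealed. Dead insects counted after 24 h; death rate (%) = dead/tested × 100.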

Spodoptera litura = test: Foliar spray test on Spodoptera litura on cabbage (Test Example 11); conditions: 96 h, fourth instar larvae of Spodoptera litura on cabbage, 500 ppm spray 20 ml/cup, after 4 days, read-out: controlling value
Summary of the method: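 Cabbage is grown in cups to the third–fourth true leaf and sprayed at 20 ml/cup. Once the spray has dried, 10 fourth-instar larvae are released per cup and survivors are counted after 4 days. Controlling value (%) is corrected using pre-treatment and observation counts in treated and untreated sections.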

Aphis gossypii [6] = test: Foliar spray test on Aphis gossypii on cucumber (Test Example 8); conditions: 144 h, 500 ppm spray 20 ml/cup, Sir days after spraying, read-out: controlling value
Protocol: On the other hand, cucumber was planted in a polyethylene cup and grown until the first true leaf was spread, and about 20 Aphis gossypii were allowed to parasitize the cucumber. One day after, the test spray solution was sprayed to the cucumber at a ratio of 20 ml/cup. Sir days after spraying, the number of Aphis gossypii was investigated, and the controlling value was calculated according to the following equation. Controlling value (%)={1−(Cb×Tai)/(Cai×Tb)}×100 In the equation, the symbols represent as follows. Cb: the number of insects in a non-treated section before treatment Cai: the number of insects in a non-treated section on observation Tb: the number of insects in a treated section before treatment Tai: the number of insects in a treated section on observation

Plutella xylostella = test: Foliar spray test on Plutella xylostella on cabbage (Test Example 10); conditions: 120 h, third instar larvae of Plutella xylostella on cabbage, 500 ppm spray 20 ml/cup, after five days, read-out: controlling value
Summary of the method: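 Cabbage at the third–fourth true-leaf stage sprayed with test solution at 20 ml/cup, dried, then infested with 10 third-instar larvae. Insects counted after five days; controlling value (%) calculated from treated and non-treated counts before treatment and at observation.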

Blattella germanica [7] = test: Knockdown spray test on Blattella germanica, 0.1% w/v oil formulation (Test Example 2); conditions: topical, 0.25 h, active ingredient 0.1% w/v, 1.5 ml sprayed, within 15 minutes, read-out: knockdown rate of the test insects within 15 minutes
Summary of the method: as §1

Culex pipiens pallens [8] = test: Larvicidal test on Culex pipiens pallens, eight days (Test Example 7); conditions: 192 h; last-instar larvae of Culex pipiens pallens; 3.5 ppm in water; eight days later; read-out: death rate
Summary of the method: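 Twenty last-instar larvae placed in 100 ml ion-exchanged water containing test drug at 3.5 ppm active ingredient. Mortality scored after eight days; death rate = dead/tested × 100.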

Culex pipiens pallens [9] = test: Larvicidal test on Culex pipiens pallens, one day (Test Example 6); conditions: 24 h; last-instar larvae of Culex pipiens pallens; 3.5 ppm in water; one day later; read-out: death rate
Protocol: Each of the formulations of Compounds of Present Invention (39), (63), (71), (72), (92), (93), (95), (106), (150), (171), (170), (181), (182), (183), (187), (188), (189), (190), (191), (192), (200), (201), (201), (234), (246), (290) and (299) obtained in Formulation Example 15 was diluted with water, so as to have a concentration of the active ingredient of 500 ppm, to prepare a test drug solution.
20 last-instar larvae of Culex pipiens pallens were released into a liquid to which 0.7 ml of the above test drug solution was added to 100 ml of ion-exchanged water (a concentration of the active ingredient of 3.5 ppm). One day later, the life and death of the Culex pipiens pallens was examined, and the death rate was calculated. The death rate was calculated by the following equation.
Death rate (%)=(Number of dead insects/Number of tested insects)×100

| Compound | pest or weed control at 2 % strength (Blattella germanica [1]) [%] | pest or weed control at 2 % strength (Musca domestica [2]) [%] | pest or weed control at 500 ppm (Aphis gossypii [3]) [%] | pest or weed control at 0.1 % strength (Culex pipiens pallens [4]) [%] | pest or weed control at 500 ppm (Musca domestica [5]) [%] | pest or weed control at 500 ppm (Spodoptera litura) [%] | pest or weed control at 500 ppm (Aphis gossypii [6]) [%] | pest or weed control at 500 ppm (Plutella xylostella) [%] | pest or weed control at 0.1 % strength (Blattella germanica [7]) [%] | pest or weed control at 3.5 ppm (Culex pipiens pallens [8]) [%] | pest or weed control at 3.5 ppm (Culex pipiens pallens [9]) [%] |
| --- | --- | --- | --- | --- | --- | --- | --- | --- | --- | --- | --- |
| O=C(NCCC1CCOC1)c1cc(COCc2ccccc2)on1 (stereo not drawn) [(30), N-[2-(tetrahydrofuran-3-yl)ethyl]-5-benzyloxymethylisoxazole-3-carboxamide] | ≥ 80 | ≥ 80 | ≥ 90 | ≥ 80 | – | – | – | – | – | – | – |
| O=C(NCC1COCCO1)c1cc(COCc2ccccc2)on1 (stereo not drawn) [(31)] | ≥ 80 | – | ≥ 90 | ≥ 80 | – | – | – | – | – | – | – |
| O=C(NC[C@H]1CCOC1)c1cc(COCc2ccccc2)on1 [(33), N—[(R)-tetrahydrofuran-3-ylmethyl]-5-benzyloxymethylisoxazole-3-carboxamide] | ≥ 80 | ≥ 80 | ≥ 90 | ≥ 80 | – | – | – | – | – | – | – |
| O=C(NC[C@@H]1CCOC1)c1cc(COCc2ccccc2)on1 [(34), N—[(S)-tetrahydrofuran-3-ylmethyl]-5-benzyloxymethylisoxazole-3-carboxamide] | ≥ 80 | ≥ 80 | ≥ 90 | ≥ 80 | ≥ 90 | – | – | – | – | – | – |
| CC1(CNC(=O)c2cc(COCc3ccccc3)on2)CCOC1 (stereo not drawn) [(36), N-(3-methyltetrahydrofuran-3-ylmethyl)-5-benzyloxymethylisoxazole-3-carboxamide] | ≥ 80 | ≥ 80 | ≥ 90 | ≥ 80 | – | – | – | – | – | – | – |
| O=C(NC1CCOCC1)c1cc(COCc2ccccc2)on1 [(43), N-(tetrahydropyran-4-yl)-5-benzyloxymethylisoxazole-3-carboxamide] | ≥ 80 | – | ≥ 90 | ≥ 80 | – | – | – | – | – | – | – |
| CCCCn1cc(C(=O)NCC2CCOC2)nn1 (stereo not drawn) [(54), N-(tetrahydrofuran-3-ylmethyl)-1-butyl-1H-1,2,3-triazole-4-carboxamide] | – | – | ≥ 90 | – | ≥ 90 | – | – | – | – | – | – |
| O=C(NCC1CCOCC1)c1cc(COCc2cccc(SC(F)(F)F)c2)on1 [(81), N-(tetrahydropyran-4-ylmethyl)-5-(3-trifluoromethylthiobenzyloxymethyl)isoxazole-3-carboxamide] | – | – | – | ≥ 80 | – | ≥ 80 | ≥ 90 | ≥ 90 | – | – | – |
| O=C(NCC1CCOCC1)c1cc(COCc2ccc(F)cc2)on1 [(90), N-(tetrahydropyran-4-ylmethyl)-5-(4-fluorobenzyloxymethyl)isoxazole-3-carboxamide] | – | – | ≥ 90 | ≥ 80 | ≥ 90 | – | – | – | ≥ 80 | – | – |
| O=C(NCC1CCOCC1)c1cc(COCc2ccc(OC(F)(F)F)cc2)on1 [(94), N-(tetrahydropyran-4-ylmethyl)-5-(4-trifluoromethoxybenzyloxymethyl)isoxazole-3-carboxamide] | – | – | – | ≥ 80 | – | – | ≥ 90 | ≥ 90 | ≥ 80 | – | – |
| O=C(NCC1CCOC1)c1cc(COCc2ccc3c(c2)OCO3)on1 (stereo not drawn) [(105), N-(tetrahydrofuran-3-ylmethyl)-5-(3,4-methylenedioxybenzyloxymethyl)isoxazole-3-carboxamide] | – | – | ≥ 90 | ≥ 80 | ≥ 90 | ≥ 80 | – | ≥ 90 | ≥ 80 | ≥ 90 | – |
| O=C(NCC1CCOCC1)c1cc(COCc2ccc3c(c2)OCO3)on1 [(106), N-(tetrahydropyran-4-ylmethyl)-5-(3,4-methylenedioxybenzyloxymethyl)isoxazole-3-carboxamide] | – | – | ≥ 90 | ≥ 80 | – | ≥ 80 | – | ≥ 90 | ≥ 80 | ≥ 90 | ≥ 90 |
| O=C(NCC1CCOC1)c1cc(COCc2ccc3c(c2)CCCC3)on1 (stereo not drawn) [(119), N-(tetrahydrofuran-3-ylmethyl)-5-(5,6,7,8-tetrahydronaphthalen-2-ylmethoxymethyl)isoxazole-3-carboxamide] | ≥ 80 | ≥ 80 | – | ≥ 80 | – | – | ≥ 90 | ≥ 90 | – | ≥ 90 | – |
| CC(OCc1ccccc1)c1cc(C(=O)NCC2CCOC2)no1 (stereo not drawn) [(129), N-(tetrahydrofuran-3-ylmethyl)-5-[1-(benzyloxy)ethyl]isoxazole-3-carboxamide] | – | – | ≥ 90 | – | – | – | ≥ 90 | – | – | – | – |
| O=C(NCC1CCOC1)c1cc(COCC2CCCC2)on1 (stereo not drawn) [(131), N-(tetrahydrofuran-3-ylmethyl)-5-cyclopentylmethoxymethylisoxazole-3-carboxamide] | ≥ 80 | ≥ 80 | – | ≥ 80 | – | – | ≥ 90 | – | – | – | – |
| O=C(NCC1CCOC1)c1cc(CCCCCCO)on1 (stereo not drawn) [(144), N-(tetrahydrofuran-3-ylmethyl)-5-(6-hydroxyhexyl)isoxazole-3-carboxamide] | – | – | – | – | – | – | ≥ 90 | – | – | – | – |
| O=C(NCC1CCOC1)c1cc(C(F)c2ccccc2)on1 (stereo not drawn) [(154), N-(tetrahydrofuran-3-ylmethyl)-5-(1-fluoro-1-phenylmethyl)isoxazole-3-carboxamide] | – | – | ≥ 90 | – | – | – | ≥ 90 | – | – | – | – |
